Laboratory results published in patent publication US20240025899A1, “TRIHETEROCYCLIC DERIVATIVE, AND PHARMACEUTICAL COMPOSITION AND APPLICATION THEREOF” (SHANGHAI DE NOVO PHARMATECH CO., LTD., priority 2020, published 2024).
Counter-ions that a name gives are not always drawn.

Assays:
hERG channel = hERG channel (Homo sapiens (Human), UniProt Q12809); test: Cardiac safety evaluation, hERG study (QPatch whole-cell recording); type: cell-based; conditions: CHO cell line expressing hERG channel
Description: In this experiment, a CHO cell line stably transfected with hERG cDNA and expressing p15 hERG channel was used. Cells were incubated at 37° C. in a humidified incubator containing 5% CO2 in medium (Ham's F12, 10% v/v FBS, 100 μg/mL hygromycin B, 100 μg/mL geneticin) (from Invitrogen). Cells were grown under the above conditions and reached approximately 80-90% of the confluency. Cells were treated with Detachin (Genlantis) for 3 to 5 minutes. The medium was titrated 15 to 20 times at 37° C., and then the cells were resuspended in CHO-S-SFM II medium (serum-free medium, Invitrogen) buffered with HEPES (25 mM). Cells used for QPatch studies must meet the following criteria: Most suspension cells should be single and isolated under microscopy; viability should be greater than 95%; cell density in the final suspension should be in the range of 3 to 8×10^6 cells/mL before application to the QPatch stir chamber. Cells meeting the above conditions can be used for recordings within 4 hours of harvest.
Test compounds were made into 10 mM DMSO stock solutions. Six doses (30, 10, 3, 1, 0.3 and 0.1 μM) were selected to obtain the fitted curves and IC50. The final DMSO concentration was 0.1% or less. The IC50 of the positive control cisapride was assessed at doses of 3, 1, 0.3, 0.1, 0.03 and 0.01 μM, respectively. Composition of […] for electrophysiological recordings: CaCl2 2 mM, MgCl2 1 mM, KCl 4 mM, NaCl 145 mM, Glucose 10 mM, HEPES 10 mM, pH 7.4 (NaOH), composition of external solution: CaCl2 […], MgCl2 1.75 mM, KCl 120 mM, HEPES 10 mM, EGTA 5 mM, Na-ATP 4 mM, pH 7.25 (KOH) (all reagents used were from sigma).
Whole-cell recordings were performed using automated QPatch (Sophion Biosciences, Denmark). Cells were recorded for 120 s to assess current stability. The above voltages were then applied to the cells every 15 s throughout the procedure. […]
The data were analyzed with Sophion Assay software (determination software V5.0), Microsoft Excel and Graphpad Prism 5.0 to obtain IC50 of compounds.

CYP2C19 = CYP2C19 (Homo sapiens (Human), UniProt P33261); test: Cytochrome oxidase P450 inhibition study, CYP2C19; type: in vitro ADME; conditions: human liver microsomes; read-out: IC50 2C19
Chain of CYP2C19 (P33261 whole entry): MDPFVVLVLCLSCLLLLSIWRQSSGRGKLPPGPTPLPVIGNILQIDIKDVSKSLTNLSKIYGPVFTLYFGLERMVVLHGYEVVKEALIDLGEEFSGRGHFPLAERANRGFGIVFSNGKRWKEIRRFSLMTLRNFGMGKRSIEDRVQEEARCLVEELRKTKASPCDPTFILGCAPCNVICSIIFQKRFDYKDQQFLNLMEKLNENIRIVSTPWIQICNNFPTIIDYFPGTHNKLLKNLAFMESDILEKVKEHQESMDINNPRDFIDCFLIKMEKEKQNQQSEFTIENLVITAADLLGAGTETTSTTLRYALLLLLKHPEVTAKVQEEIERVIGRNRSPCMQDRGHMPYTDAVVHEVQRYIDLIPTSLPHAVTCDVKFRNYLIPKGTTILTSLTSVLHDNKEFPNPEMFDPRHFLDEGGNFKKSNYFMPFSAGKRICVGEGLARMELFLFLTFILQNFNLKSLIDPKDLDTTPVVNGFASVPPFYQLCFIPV
Description: LC-MS/MS methods were used to evaluate the inhibitory effects of compounds on CYP2C19, 2D6 and 3A4 subtypes. In this method, the test compound was mixed with a solution of human liver microsomes containing CYP model substrates, and incubated together under the addition of NADPH, then the inhibitory IC50 of the compound on CYP2C19, 2D6 and 3A4 was calculated by measuring the amount of metabolites of the model substrate in the reaction solution. The specific experimental method is as follows:
Compounds to be tested were prepared as stock solutions at 10 mM concentration with DMSO and then diluted to 4 mM with acetonitrile solution. At the same time, the corresponding reference inhibitor solutions for CYP subtypes were prepared, for example, the reference inhibitor was Ketoconazole, then these two compounds were prepared separately ([…] of inhibitor DMSO stock solution+[…] of acetonitrile), and the samples prepared under the above conditions were at 400× concentration. Then, the above solution was 3-fold diluted with DMSO/acetonitrile mixture (v/v: 40/60) to prepare the final test solution, and seven concentration points were set for each test compound, and the initial test final concentration was 10 μM. […]
[…] of human liver microsome solution (0.2 mg/mL) was added to each well containing the test compound in the 96-well plate, and then 2 mL of the final test sample of test compounds prepared by serial dilution as described above was added thereto; for each well corresponding to the reference inhibitors, […] of human liver microsome solution (0.2 mg/mL) and 1 mL of the final test sample were added. […] The inhibition rate was determined by comparing the amount of model substrate metabolites at each test concentration without test substance addition, in the GraphPad Prism 5.0 software, the logarithm of the test concentration was used as the abscissa and the inhibition rate was used as the ordinate to perform a linear regression (Sigmoidal (non-linear) dose-response model) analysis to obtain the IC50 value of the test compound.

[1] = system: LOVO human colon cancer cell line; test: Cell proliferation assay (Cell titer glo); type: cell-based; conditions: LOVO cells, 72 hours
Description: In the present disclosure, cell assays were used to evaluate the biological activity of compounds. LOVO (Nanjing Cobioer), a human colon cancer cell line, was cultured in a Dulbecco's Modified Eagle's medium 96-well plate, supplemented with 10% fetal bovine serum and 1% P/S, and the culture environment was 37° C. and 5% CO2. Compound concentrations were ranged from 4.5 nM to 30 μM. The stock solution of the test compound was dissolved in DMSO and added to the medium at the indicated concentration, and incubated for 72 hours. Negative control cells were treated with vehicle only. In some experiments, known ATR inhibitors were added as positive controls. Cell viability was evaluated using the Cell titer glo kit (CTG, Promega) under the instructions of the product specification. The data were analyzed using Graphpad software, and IC50 values and compound fitting curves were obtained (Table 2).

Chain of hERG channel (Q12809 whole entry): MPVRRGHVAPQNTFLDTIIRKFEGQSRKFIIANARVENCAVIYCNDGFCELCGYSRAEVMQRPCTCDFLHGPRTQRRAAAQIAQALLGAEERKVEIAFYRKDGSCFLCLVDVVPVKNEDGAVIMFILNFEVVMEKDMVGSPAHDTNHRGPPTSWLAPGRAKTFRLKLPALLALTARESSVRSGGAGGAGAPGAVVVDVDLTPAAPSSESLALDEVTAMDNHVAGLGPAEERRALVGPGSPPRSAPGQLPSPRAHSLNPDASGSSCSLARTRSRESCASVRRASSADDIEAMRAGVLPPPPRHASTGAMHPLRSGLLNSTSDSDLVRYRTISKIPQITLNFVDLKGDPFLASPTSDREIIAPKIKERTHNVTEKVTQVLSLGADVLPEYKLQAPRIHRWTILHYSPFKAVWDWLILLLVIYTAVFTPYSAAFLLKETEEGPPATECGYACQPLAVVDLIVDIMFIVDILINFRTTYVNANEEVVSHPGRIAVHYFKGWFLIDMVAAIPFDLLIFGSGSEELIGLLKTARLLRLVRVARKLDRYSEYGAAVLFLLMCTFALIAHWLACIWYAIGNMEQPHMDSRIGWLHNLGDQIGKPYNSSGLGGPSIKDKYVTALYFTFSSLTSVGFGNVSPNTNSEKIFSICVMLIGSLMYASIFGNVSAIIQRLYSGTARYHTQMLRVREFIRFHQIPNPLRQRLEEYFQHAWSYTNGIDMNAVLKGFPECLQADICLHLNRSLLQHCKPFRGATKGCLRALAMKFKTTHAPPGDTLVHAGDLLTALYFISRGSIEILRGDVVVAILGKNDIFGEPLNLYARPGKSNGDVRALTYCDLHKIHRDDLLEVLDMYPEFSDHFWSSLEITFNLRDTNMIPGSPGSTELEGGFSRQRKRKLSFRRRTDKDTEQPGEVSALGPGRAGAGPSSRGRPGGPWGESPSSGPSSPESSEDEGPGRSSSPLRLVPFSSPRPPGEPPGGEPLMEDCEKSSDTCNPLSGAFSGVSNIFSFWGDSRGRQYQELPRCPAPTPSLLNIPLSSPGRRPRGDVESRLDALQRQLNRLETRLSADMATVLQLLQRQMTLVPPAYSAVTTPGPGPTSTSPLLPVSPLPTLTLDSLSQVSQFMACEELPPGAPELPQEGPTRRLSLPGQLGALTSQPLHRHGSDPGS

Compound | IC50 (hERG channel) [µM] | IC50 (CYP2C19) [µM] | IC50 [1] [µM]
C[C@@H]1COCCN1c1nc2c(cnn2-c2cc[nH]n2)c2c1CCN2S(C)(=O)=O [Compound 2, (R)-3-methyl-4-(1-(methylsulfonyl)-6-(1H-pyrazol-3-yl)-1,2,3,6-tetrahydropyrazolo[3,4-b]pyrrolo[2,3-d]pyridin-4-yl)morpholine trifluoroacetate] | > 30 | > 10 | 0.0373
C[C@@H]1COCCN1c1nc2c(cnn2-c2cc[nH]n2)c2c1ccn2S(C)(=O)=O [Compound 1, (R)-3-methyl-4-(1-(methylsulfonyl)-6-(1H-pyrazol-3-yl)-1,6-dihydropyrazolo[3,4-b]pyrrolo[2,3-d]pyridin-4-yl)morpholine trifluoroacetate] | > 30 | > 10 | 0.0296
